The test system of one data set is breast tumor xenograft. Briefly: Breast tumor xenograft model in rats, MPG disulfide with or without cisplatin. Type of data set: in vivo. Here is the method:
(§1) The efficacy of MPG disulfide in improving the response to cisplatin in the breast tumor xenograft model in rats was tested. MPG disulfide was tested against two different tumor sizes. These different tumor sizes were achieved by growing the tumor in rats for up to 6 days (small tumor, FIG. 13) or 12 days (large tumor, FIGS. 14 and 15). MPG disulfide was determined to be non-toxic to the animals.
(§2) The response of tumors to MPG disulfide was determined in rats with either small tumors (approximately 139 mm^3) or large tumors (approximately 2837 mm^3). MPG disulfide in physiological saline was administered at 40 mg/Kg/day via IP injections. The control animals were treated with saline. This treatment was continued for three consecutive days. […] Each group (control or MPG disulfide) consists of at least three animals. Each data point is mean of at least three animals with standard error as shown unless smaller than points plotted.
(§3) The improved response of large tumors to cisplatin by MPG disulfide was determined in rats with tumors of approximately 2837 mm^3 in tumor volume. MPG disulfide in physiological saline was administered at 40 mg/kg/day via IP injections. At one hour after MPG disulfide administration, cisplatin (2 mg/kg) was administered to these rats by IP. MPG treatment alone without cisplatin was continued for two more days in these animals. […] Each group (cisplatin or MPG disulfide with cisplatin) consists of at least three animals. Each data point is mean of at least three animals with standard error as shown unless smaller than points plotted.

Data set [1] concerns radiation sensitive human colon cancer cells HCT116. In words: Clonogenic (colony) assay, HEDS alone. The format is cell-based. Here is the method: In FIG. […] The cells were washed and replenished with fresh growth medium. Colony assays were carried out by plating cells at concentration that gives no more than 200 colonies. Each experiment was repeated at least three times with errors as shown unless smaller than points plotted.

The subject of data set [2] is radiation resistant human colon cancer cells HT29. In words: Clonogenic (colony) assay, HEDS alone. Type of data set: cell-based. On the procedure:
(§4) For FIG. 3, radiation resistant human colon cancer cells HT29 were deprived of glucose for 4 hours and then treated with various concentrations of HEDS for 3 hours. The cells were washed and replenished with fresh growth medium. For FIG. 4, HT29 cells were deprived of glucose for 4 hours, treated with various concentrations of HEDS, and then treated for 1 hour before 4 Gy irradiation. Two hours after irradiation, the cells were washed and replenished with fresh growth medium. Colony assays were carried out by plating cells at concentration that gives no more than 200 colonies. Each experiment was repeated at least three times with errors as shown unless smaller than points plotted. […]

The next data set has as its system HCT116 cells. In words: Colony assay, HEDS plus 4 Gy irradiation. The format is cell-based, human. The following applies: HCT116, absence of glucose, HEDS 1 hour before 4 Gy irradiation. On the procedure: For FIG. 2, HCT116 cells were deprived of glucose for 4 hours, treated with various concentrations of HEDS for 1 hour, and then exposed to 4 Gy irradiation. Two hours after irradiation, the cells were washed and replenished with fresh growth medium. The colony assay was then performed as described above for FIG. 1.

The next data set relates to HT29 cells. In words: Colony assay, HEDS plus 4 Gy irradiation. The format is cell-based, human. The note with it: HT29, absence of glucose, HEDS 1 hour before 4 Gy irradiation. On the procedure: as §4
In data set [3] the test system is human colon cancer cells HCT116. Briefly: Depletion of intracellular thiols (Ellman's reagent). Type of data set: cell-based. The following applies: HEDS 3 hours. On the procedure: The depletion of intracellular thiols by HEDS in human colon cancer cells HCT116 and HT29 was determined by first depriving the cells of glucose for 4 hours. After three hours of HEDS treatment, the attached cells were washed with cell rinse and lysed with 1 ml of sulphosalicyclic acid (SSA) lysis buffer. The samples were then centrifuged at high speed in a Fisher 59A microfuge and the supernatant was used for quantification of intracellular thiols using Ellman's reagent. Each experiment was repeated at least three times with errors as shown unless smaller than points plotted.
For the estimation of intracellular thiols in HCT116 cells, the cells were incubated with different concentrations of glucose for 4 hours. For FIG. 12, the cells were then treated with HEDS for 3 hours. After treatment, the attached cells were washed with cell rinse and lysed with 1 ml of sulphosalicyclic acid (SSA) lysis buffer. The samples were centrifuged at high speed in a Fisher 59A microfuge and the supernatant was used for quantification of intracellular thiols using Ellman's reagent. Each experiment was repeated at least three times with errors as shown unless smaller than points plotted.
(Ellman's reagent forms a yellow product with free thiols.)

In data set [4] the test system is human colon cancer cells HT29. The description is as above. Type of data set: cell-based. The following applies: HEDS 3 hours. On the procedure:
[…] After three hours of HEDS treatment, the attached cells were washed with cell rinse and lysed with 1 ml of sulphosalicyclic acid (SSA) lysis buffer. The samples were then centrifuged at high speed in a Fisher 59A microfuge and the supernatant was used for quantification of intracellular thiols using Ellman's reagent. Each experiment was repeated at least three times with errors as shown unless smaller than points plotted.

In the next data set the test system is breast tumor xenografts. Briefly: Response of tumor xenografts in rats to etoposide with HEDS. Type of data set: in vivo. The note with it: HEDS 10 mg/kg/day IP one hour before etoposide 12 mg/Kg/day IP, three consecutive days, tumor about 8×8 mm. On the procedure:
The use of HEDS, an oxidant/disulfide, to increase the response of tumor xenografts to topoisomerase II inhibitor, etoposide, was also investigated. […] The effect of HEDS (0 and 10 mg/kg/day) on the response of tumor to etoposide (12 mg/Kg/day) was determined in rats with tumor of approximately 8×8 mm in size. HEDS in physiological saline was administered at 0 and 10 mg/kg via IP injections. At one hour after HEDS administration, etoposide was administered to these rats by IP. This treatment was continued for three consecutive days. Tumor growth was measured twice a week for up to two weeks.

Data set [5] deals with breast cancer cell line (MCF7). In words: Radiation response (survival after 4Gy γ irradiation) with HEDS. The format is cell-based, human. The following applies: MCF7, absence of glucose. The text has this: (§5) FIGS. 17 and 18 show the impact of HEDS on the radiation response of a breast cancer cell line (MCF7) and a prostate cancer cell line (DU145) in the presence and absence of glucose.

Data set [6] deals with prostate cancer cell line (DU145). The data set is described as above. Type of data set: cell-based, human. The note with it: DU145, absence of glucose.
Text: as §5

Data set [7] can be described thus: Tolerability in tumor-bearing rats. The format is in vivo. Here is the method:
as §1, §2, §3

In the case of `N.N.[Cl][Pt][Cl]` [Cisplatin, cis-diamine-dichloroplatinum (II), reference compound], the “tumor volume on day 13 after the treatment” value with breast tumor xenograft (large tumors, cisplatin alone 2 mg/kg IP) is listed as 4355±577 mm^3. Besides, the “tumor volume at start of treatment” value in the data set with breast tumor xenograft (large tumors, cisplatin alone group, baseline) was 2948±180 mm^3.
As for `OCCSSCCO` [HEDS, hydroxyethyldisulfide], the “cytotoxic effect (clonogenic survival)” value was “little/no cytotoxic effects” in [1] (HCT116, HEDS alone 3 hours, presence of glucose) and “little/no cytotoxic effects” in data set [2] (HT29, HEDS alone 3 hours, presence of glucose). Besides, in data set [1] (HCT116, absence of glucose (deprived 4 hours), higher concentration of HEDS alone, 3 hours), the decrease in survival came out at 75%. In addition, the effect on survival result in data set [2] (HT29, absence of glucose (deprived 4 hours), higher concentration of HEDS alone) was “no significant effect”. Besides, the sensitization to radiation result with HCT116 cells and in the data set on HT29 cells was “sensitization” each time. The intracellular thiols is ≥ 40 % of the control in data set [3] (HCT116, glucose deprived 4 hours); “intracellular thiol depletion” in [3] (HCT116, low concentrations (1-3 mM) of glucose); “maintaining the intracellular thiols” in data set [3] (HCT116, with glucose); ≥ 40 % of the control in data set [4] (HT29, glucose deprived 4 hours); “maintaining the intracellular thiols” in data set [4] (HT29, with glucose). For the same molecule, the “better tumor response with HEDS and etoposide compared to etoposide alone” value in the data set on breast tumor xenografts is on record as “at least 50%”. Moreover, the radiation response entry in [5] and in [6] was “significantly increased” throughout.
On to `CC(SSC(C)C(=O)NCC(=O)O)C(=O)NCC(=O)O` (stereo not drawn) [MPG disulfide, disulfide of mercaptopropionylglycine (MPG) (glycinepropionyldisulfide)], for which the effect on tumors result in the data set on breast tumor xenograft (MPG disulfide in combination with cisplatin, even large tumors) is “completely eliminated tumors”. For the same molecule, the “tumor volume on day 13 after the start of the treatment” value in the data set with breast tumor xenograft (large tumors, MPG disulfide 40 mg/kg/day IP (3 days) in combination with cisplatin 2 mg/kg IP) turned out to be 112±47 mm^3. Besides, the “increase in tumor size” value in the data set on breast tumor xenograft (large tumors, MPG disulfide alone 40 mg/Kg/day IP, day 5 after the treatment) came to 3 fold. Also, the “tumor volume at start of treatment” value in the data set with breast tumor xenograft (large tumors, MPG disulfide alone group, baseline) is 2848±538 mm^3; in the data set with breast tumor xenograft (large tumors, cisplatin and MPG disulfide combination group, baseline), 2402±218 mm^3. In addition, in the data set on breast tumor xenograft (large tumors, MPG disulfide alone, day 5 after the treatment), the “tumor smaller than the untreated animals” value was 2.5 fold. In addition, in the data set on breast tumor xenograft (large tumors, MPG disulfide alone, day 8), the maximum tumor size is given as 18,038±1289 mm^3. For the same molecule, the “tumor smaller compared to cisplatin group” value in the data set with breast tumor xenograft (large tumors, MPG disulfide in combination with cisplatin, day 13) is 38 fold. Also, in the data set on breast tumor xenograft (small tumors, MPG disulfide alone 40 mg/Kg/day IP, three consecutive days), the “tumor volume on day 13” value is 126±119 mm^3. Besides, the “growth of small size tumors” value in the data set with breast tumor xenograft (small tumors, MPG disulfide alone 40 mg/Kg/day IP, to day 13) is “completely inhibited the growth”. In addition, the “tumor volume on the day of treatment” value with breast tumor xenograft (small tumors, MPG disulfide alone group, baseline) is 139±4.29 mm^3. Also, the observable side effects entry in data set [7] (MPG disulfide 40 mg/Kg/day IP, three consecutive days) is “did not cause any observable side effects”; in [7] (MPG disulfide 40 mg/kg/day IP with cisplatin 2 mg/kg IP, MPG continued two more days), “did not cause any observable side effects”. Moreover, the “toxicity to the animals” value in data set [7] (rats with breast tumor xenograft) is given as “non-toxic”.

Values taken from patent US9522164B2, “Disulfide chemotherapeutic agents and methods of use thereof” (Lankenau Institute for Medical Research, priority 2007, dated 2016).
